The subject of the assay is HCoV 229E. The assay can be described thus: HCoV 229E cytopathic effect (CPE) assay. It counts as cell-based, Human Coronavirus (HCov) 229E. Conditions: CellTiter Glo. For orientation: Damage to the host cells serves as the signal in cytopathic effect assays.

A word on the EC50: it is the concentration giving half of the maximal effect. A low value points to higher potency in that assay.

Experimental: The antiviral activity of compounds was calculated based on the protection of the virus-induced CPE at each concentration normalized by the virus control.
Reagents and instruments used in this assay include luminescent cell viability assay kit CellTiter Glo (Promega) and Microplate Reader Synergy2 (BioTek).
Cytopathic effect (CPE) was measured by CellTiter Glo following the manufacturer's manual. The antiviral activity of compounds was calculated based on the protection of the virus-induced CPE at each concentration normalized by the virus control.

Take `COc1cccc2[nH]c(C(=O)N[C@@H](CC(C)(C)C)C(=O)N[C@H](C#N)C[C@@H]3CCCNC3=O)cc12` [Compound 643, N-[(1S)-1-[[(1S)-1-cyano-2-[(3S)-2-oxo-3-piperidyl]ethyl]carbamoyl]-3,3-dimethyl-butyl]-4-methoxy-1H-indole-2-carboxamide]: the EC50 was < 2000 nM.
The value for `CC(C)(C)C[C@H](NC(=O)c1cc2cccc(Cl)c2[nH]1)C(=O)N[C@H](C#N)C[C@@H]1CCCNC1=O` [Compound 721, 7-chloro-N—((S)-1-(((S)-1-cyano-2-((S)-2-oxopiperidin-3-yl)ethyl)amino)-4,4-dimethyl-1-oxopentan-2-yl)-1H-indole-2-carboxamide] was < 2000 nM; that for `COc1cccc2[nH]c(C(=O)N[C@@H](CC(C)C)C(=O)N[C@@H](C[C@@H]3CCNC3=O)C(C#N)NC(C)(C)C)cc12` (single isomer, unassigned) [323 (Isomer 1)] was < 2000 nM; that for `COc1c(Cl)ccc2[nH]c(C(=O)N[C@@H](CC(C)(C)C)C(=O)N[C@H](C#N)C[C@@H]3CCCNC3=O)cc12` [Compound 739] was < 2000 nM.
With `CC(C)C[C@H](NC(=O)/C=C/c1ccc(Cl)cc1F)C(=O)N[C@H](C#N)C[C@@H]1CCNC1=O` [Compound 598], the EC50 is < 2000 nM.
In the case of `COc1cccc2[nH]c(C(=O)N[C@@H](CC3CC3)C(=O)N[C@H](C#N)C[C@@H]3CCNC3=O)cc12` [Compound 205, N—((S)-1-(((S)-1-cyano-2-((S)-2-oxopyrrolidin-3-yl)ethyl)amino)-3-cyclopropyl-1-oxopropan-2-yl)-4-methoxy-1H-indole-2-carboxamide], the EC50 was < 2000 nM.
To `CC(C)(C)C[C@H](NC(=O)c1cc2ccc(Cl)c(Cl)c2[nH]1)C(=O)N[C@H](C#N)C[C@@H]1CCCNC1=O` [Compound 725] belongs < 2000 nM; to `COc1cccc2[nH]c(C(=O)NC(CC(C)C)C(=O)NC(CC3CCNC3=O)C(O)C#N)cc12` [Compound 134, N-[(1S)-1-[[(1S)-2-cyano-2-hydroxy-1-[[(3S)-2-oxopyrrolidin-3-yl]methyl]ethyl]carbamoyl]-3-methyl-butyl]-4-methoxy-1H-indole-2-carboxamide], < 2000 nM.
To `COc1cccc2[nH]c(C(=O)N3C[C@H]4C([C@H]3C(=O)N[C@H](C#N)C[C@@H]3CCNC3=O)C4(C)C)cc12` (stereo partly drawn) [Compound 197, (2S,5S)—N-[(1S)-1-cyano-2-[(3S)-2-oxopyrrolidin-3-yl]ethyl]-3-(4-methoxy-1H-indole-2-carbonyl)-6,6-dimethyl-3-azabicyclo[3.1.0]hexane-2-carboxamide] belongs < 2000 nM; to `CC(C)C[C@H](NC(=O)c1nc2cccc(Cl)c2[nH]1)C(=O)N[C@H](C#N)C[C@@H]1CCNC1=O` [Compound 133], < 2000 nM; to `N#C[C@H](C[C@@H]1CCCNC1=O)NC(=O)[C@H](CC1CC1)NC(=O)c1cc2cc(Cl)ncc2[nH]1` [Compound 717], < 2000 nM.
The value for `COc1cccc2[nH]c(C(=O)N[C@@H](CC(C)C)C(=O)N[C@@H](C[C@@H]3CCNC3=O)C(C#N)NCC(=O)O)cc12` (stereo partly drawn) [Compound 653] was < 2000 nM; that for `COc1cccc2[nH]c(C(=O)N3C[C@@H]4CCC[C@@H]4[C@H]3C(=O)N[C@H](C#N)C[C@@H]3CCNC3=O)cc12` [Compound 393] was < 2000 nM.
As to `COc1cccc2[nH]c(C(=O)N3CC4(CCCCC4)CC3C(=O)N[C@H](C#N)C[C@@H]3CCCNC3=O)cc12` (single isomer, unassigned) [681 (Isomer 1)], the EC50 was < 2000 nM.
On to `COc1cccc2[nH]c(C(=O)N[C@@H](CC3CCCCC3)C(=O)N[C@H](C#N)C[C@@H]3CCNC3=O)cc12` [Compound 185, N-[(1S)-2-[[(1S)-1-cyano-2-[(3S)-2-oxopyrrolidin-3-yl]ethyl]amino]-1-(cyclohexylmethyl)-2-oxo-ethyl]-4-methoxy-1H-indole-2-carboxamide], for which the EC50 was < 2000 nM.
`COc1cccc2[nH]c(C(=O)N[C@@H](CC3CC3)C(=O)N[C@H](C#N)C[C@@H]3CCCNC3=O)cc12` [Compound 491, N-[(1S)-2-[[(1S)-1-cyano-2-[(3S)-2-oxo-3-piperidyl]ethyl]amino]-1-(cyclopropylmethyl)-2-oxo-ethyl]-4-methoxy-1H-indole-2-carboxamide]: the EC50 is < 2000 nM.
To `N#C[C@H](C[C@@H]1CCCNC1=O)NC(=O)[C@H](CC1CC1)NC(=O)c1cc2c(Cl)nccc2[nH]1` [Compound 715] belongs < 2000 nM; to `N#C[C@H](C[C@@H]1CCNC1=O)NC(=O)[C@H](CC1CC1)NC(=O)c1cc2cccc(Cl)c2[nH]1` [Compound 531, 7-chloro-N-[(1S)-2-[[(1S)-1-cyano-2-[(3S)-2-oxopyrrolidin-3-yl]ethyl]amino]-1-(cyclopropylmethyl)-2-oxo-ethyl]-1H-indole-2-carboxamide], < 2000 nM.
For the compound `CCOc1cccc2[nH]c(C(=O)N[C@@H](CC(C)C)C(=O)N[C@H](C#N)C[C@@H]3CCNC3=O)cc12` [Compound 377], the EC50 was < 2000 nM.
For `COc1cccc2[nH]c(C(=O)N[C@@H](CC(C)C)C(=O)N[C@@H](C[C@@H]3CCNC3=O)C(O)C#N)cc12` (single isomer, unassigned; isomer 2) [135 (Isomer 2)], the EC50 is < 2000 nM.
As to `COc1cccc2[nH]c(C(=O)N[C@@H](CC(C)C)C(=O)N[C@H](C#N)C[C@@H]3CCNC3=O)cc12` [Compound 101, N-[(1S)-1-[[(1S)-1-cyano-2-[(3S)-2-oxopyrrolidin-3-yl]ethyl]carbamoyl]-3-methyl-butyl]-4-methoxy-1H-indole-2-carboxamide], the EC50 is < 2000 nM.
To `COc1cccc2[nH]c(C(=O)N3C[C@H](c4ccccc4)C[C@H]3C(=O)N[C@H](C#N)C[C@@H]3CCNC3=O)cc12` [Compound 171] belongs < 2000 nM.
The value for `N#C[C@H](C[C@@H]1CCNC1=O)NC(=O)[C@H](CC1CC1)NC(=O)c1cc2c([nH]1)CCCC2` [Compound 711] was < 2000 nM.
In the case of `COc1cccc2[nH]c(C(=O)N3CC4(CCCCC4)CC3C(=O)N[C@H](C#N)C[C@@H]3CCNC3=O)cc12` (single isomer, unassigned) [389A (Isomer 1)], the EC50 is < 2000 nM.
To `COc1cccc2[nH]c(C(=O)N3C[C@H](c4ccccc4)C[C@H]3C(=O)N[C@@H](C[C@@H]3CCNC3=O)C(O)C#N)cc12` (stereo partly drawn) [Compound 345] belongs < 2000 nM; to `N#C[C@H](C[C@@H]1CCNC1=O)NC(=O)[C@H](CC1CC1)NC(=O)c1cc2cc(Cl)ccc2[nH]1` [Compound 519], < 2000 nM; to `COc1cccc2[nH]c(C(=O)N[C@@H](CC(C)C)C(=O)N[C@@H](C[C@@H]3CCNC3=O)C(C#N)N[C@@H](C)c3ccccc3)cc12` (stereo partly drawn) [Compound 329], < 2000 nM.
On to `COc1cccc2[nH]c(C(=O)N3CC4(CCCC4)C[C@H]3C(=O)N[C@H](C#N)C[C@@H]3CCNC3=O)cc12` [Compound 401, (S)—N—((S)-1-cyano-2-((S)-2-oxopyrrolidin-3-yl)ethyl)-2-(4-methoxy-1H-indole-2-carbonyl)-2-azaspiro[4.4]nonane-3-carboxamide], for which the half-maximal effective concentration (EC50) is < 2000 nM.
With `CC(C)C[C@H](NC(=O)c1cc2c(OC(F)F)cccc2[nH]1)C(=O)N[C@H](C#N)C[C@@H]1CCNC1=O` [Compound 509], the EC50 is < 2000 nM.
To `N#C[C@H](C[C@@H]1CCNC1=O)NC(=O)[C@H](CC1CC1)NC(=O)c1cc2c(C3CC3)cccc2[nH]1` [Compound 375A] belongs < 2000 nM.

Values taken from patent US11312704B2, “Inhibitors of cysteine proteases and methods of use thereof” (priority 2020, dated 2022).
